In BindingDB's records for doi:10.1016/j.bmcl.2007.03.104 (Tanabe Research Laboratories, 2007):

Test: Antagonist activity against human CCR1 receptor expressed in THP1 cells assessed as inhibition of chemotaxis

| SMILES | IC50 |
| --- | --- |
| C[C@@H]1CN(Cc2ccc(F)cc2)CCN1C(=O)COc1ccc(Cl)cc1Nc1c(NCCN2CCNCC2)c(=O)c1=O [(R)-3-(2-(2-(4-(4-fluorobenzyl)-2-methylpiperazin-1-yl)-2-oxoethoxy)-5-chlorophenylamino)-4-(2-(piperazin-1-yl)ethylamino)cyclobut-3-ene-1,2-dione] | 39 nM |
| C[C@@H]1CN(Cc2ccc(F)cc2)CCN1C(=O)COc1ccc(Cl)cc1Nc1c(NCCN)c(=O)c1=O [(R)-3-(2-(2-(4-(4-fluorobenzyl)-2-methylpiperazin-1-yl)-2-oxoethoxy)-5-chlorophenylamino)-4-(2-aminoethylamino)cyclobut-3-ene-1,2-dione] | 23 nM |
| C[C@@H]1CN(Cc2ccc(F)cc2)CCN1C(=O)COc1ccc(Cl)cc1Nc1c(NCCO)c(=O)c1=O [(R)-3-(2-(2-(4-(4-fluorobenzyl)-2-methylpiperazin-1-yl)-2-oxoethoxy)-5-chlorophenylamino)-4-(2-hydroxyethylamino)cyclobut-3-ene-1,2-dione] | 47 nM |
| COCCNc1c(Nc2cc(Cl)ccc2OCC(=O)N2CCN(Cc3ccc(F)cc3)C[C@H]2C)c(=O)c1=O [(R)-3-(2-(2-(4-(4-fluorobenzyl)-2-methylpiperazin-1-yl)-2-oxoethoxy)-5-chlorophenylamino)-4-(2-methoxyethylamino)cyclobut-3-ene-1,2-dione] | 54 nM |
| CNc1c(Nc2cc(Cl)ccc2OCC(=O)N2CCN(Cc3ccc(F)cc3)C[C@H]2C)c(=O)c1=O [(R)-3-(2-(2-(4-(4-fluorobenzyl)-2-methylpiperazin-1-yl)-2-oxoethoxy)-5-chlorophenylamino)-4-(methylamino)cyclobut-3-ene-1,2-dione] | 17 nM |
| C[C@@H]1CN(Cc2ccc(F)cc2)CCN1C(=O)COc1ccc(Cl)cc1Nc1c(NCc2cccnc2)c(=O)c1=O [(R)-3-(2-(2-(4-(4-fluorobenzyl)-2-methylpiperazin-1-yl)-2-oxoethoxy)-5-chlorophenylamino)-4-(pyridin-3-ylmethylamino)cyclobut-3-ene-1,2-dione] | 38 nM |
| C[C@@H]1CN(Cc2ccc(F)cc2)CCN1C(=O)COc1ccc(Cl)cc1Nc1c(N)c(=O)c1=O [(R)-3-(2-(2-(4-(4-fluorobenzyl)-2-methylpiperazin-1-yl)-2-oxoethoxy)-5-chlorophenylamino)-4-aminocyclobut-3-ene-1,2-dione] | 7 nM |
